For assay [1], the system named is A2780 (ovarian cell line). Description: Cytotoxicity assay (propidium iodide assay), A2780. The format is cell-based. Conditions: Homo sapiens, A2780 cells, 48 h treatment. As to the method:
(§1) The assay was designed as in the reference, Anticancer Drugs, 2002, 13, 1-8, the disclosure of which is incorporated by reference for the teaching of the assay.
(§2) Cells from cell lines A2780 (ovarian cell line) and PC3 (prostate cell line) (both from ATCC) were seeded at a density of 3000 cells/well in a white opaque 96-well plate. Following incubation at 37° C./5% CO2 for a period of 18-24 h, the cells were treated with various concentrations (stock solution was prepared in DMSO and subsequent dilutions were made in media as per ATCC guidelines) of the test compounds for a period of 48 h. At the end of treatment, the culture medium was discarded, the cells were washed with 1×PBS and 200 μl of 7 μg/ml propidium iodide was added to each well. The plates were frozen at −70° C. overnight. For analysis, the plates were warmed to RT, allowed to thaw and were read in PoleStar fluorimeter with the fluorescence setting. The percentage of viable cells in the non-treated set of wells was considered to be 100 and the percentage viability following treatment was calculated accordingly. IC50 values were calculated from graphs plotted using these percentages.

The subject of assay [2] is PC3 (prostate cell line). Description: Cytotoxicity assay (propidium iodide assay), PC3. It counts as cell-based. Conditions: Homo sapiens, PC-3, PC3 cells, 48 h treatment. As to the method:
as §1, §2

Bounds are passed on as bounds.

Usually IC50 stands for the concentration needed to halve the response being measured. Low values mean higher potency, high ones lower potency. For the compound `COc1ccc(-n2c(=NC#N)n(C)c3cnc4ccc(-c5cnc(N)c(C(F)(F)F)c5)cc4c32)c(C)n1` [Example 9, N-(8-(6-amino-5-(trifluoromethyl)pyridin-3-yl)-1-(6-methoxy-2-methylpyridin-3-yl)-3-methyl-1H-imidazo[4,5-c]quinolin-2(3H)-ylidene)cyanamide], the concentration for half-maximal inhibition (IC50) in assay [1] and in assay [2] was ≤ 0.5 µM throughout.
One may read the inhibition as the share of the control response that was lost under treatment. Turning to `COc1ccc(-n2c(=NC#N)n(C)c3cnc4ccc(-c5cnccc5F)cc4c32)cn1` [Example 39, N-(8-(4-fluoropyridin-3-yl)-1-(6-methoxypyridin-3-yl)-3-methyl-1H-imidazo[4,5-c]quinolin-2(3H)-ylidene)cyanamide], the inhibition at 1 µM in assay [1] and in assay [2] was 30 to 70% throughout.
Turning to `Cn1c(=NC#N)n(-c2ccc(OC(F)(F)F)cc2)c2c3cc(-c4ccncc4)ccc3ncc21` [Example 109, N-(3-methyl-8-(pyridin-4-yl)-1-(4-(trifluoromethoxy)phenyl)-1H-imidazo[4,5-c]quinolin-2(3H)-ylidene)cyanamide], the IC50 in assay [1] was ≤ 0.5 µM; in assay [2], 0.5 to 2 µM.
Consider `COc1ccc(-n2c(=NC#N)n(C)c3cnc4ccc(-c5cc(F)ccc5OC)cc4c32)cn1` [Example 47, N-(8-(5-fluoro-2-methoxyphenyl)-1-(6-methoxypyridin-3-yl)-3-methyl-1H-imidazo[4,5-c]quinolin-2(3H)-ylidene)cyanamide], for which the inhibition at 1 µM in assay [1] and in assay [2] was < 30% each time.
Take `COc1ccc(-n2c(=NC#N)n(C)c3cnc4ccc(-c5cccnc5C)cc4c32)cn1` [Example 45, N-(1-(6-methoxypyridin-3-yl)-3-methyl-8-(2-methylpyridin-3-yl)-1H-imidazo[4,5-c]quinolin-2(3H)-ylidene)cyanamide]: the inhibition at 1 µM is 30 to 70% in assay [1] and < 30% in assay [2].
On the same counts, the results for `COc1ccc(-n2c(=NC#N)n(C)c3cnc4ccc(-c5cncc6ccccc56)cc4c32)cn1` [Example 35, N-(8-(isoquinolin-4-yl)-1-(6-methoxypyridin-3-yl)-3-methyl-1H-imidazo[4,5-c]quinolin-2(3H)-ylidene)cyanamide] are ≥ 70% and 30 to 70%.
On the same counts, the results for `COc1ccc(-n2c(=NC#N)n(C)c3cnc4ccc(-c5cnc(OC)c(N)c5)cc4c32)c(OC)c1` [Example 13, N-(8-(5-amino-6-methoxypyridin-3-yl)-1-(2,4-dimethoxyphenyl)-3-methyl-1H-imidazo[4,5-c]quinolin-2(3H)-ylidene)cyanamide] are ≥ 70% and ≥ 70%.
On the same counts, the results for `COc1ccc(-n2c(=NC#N)n(C)c3cnc4ccc(-c5ccc(SC(C)C)cc5)cc4c32)cn1` [Example 37, N-(8-(4-(isopropylthio)phenyl)-1-(6-methoxypyridin-3-yl)-3-methyl-1H-imidazo[4,5-c]quinolin-2(3H)-ylidene)cyanamide] are 30 to 70% and < 30%.
In the case of `Cn1c(=NC#N)n(-c2ccc(C(C)(C)C#N)nc2)c2c3cc(-c4cccc5ccccc45)ccc3ncc21` [Example 82, N-(1-(6-(2-cyanopropan-2-yl)pyridin-3-yl)-3-methyl-8-(naphthalen-1-yl)-1H-imidazo[4,5-c]quinolin-2(3H)-ylidene)cyanamide], the inhibition at 1 µM is 30 to 70% in assay [1] and < 30% in assay [2].
As to `COc1cc(OC)cc(-n2c(=NC#N)n(C)c3cnc4ccc(-c5cnc(OC)c(N)c5)cc4c32)c1` [Example 99, N-(8-(5-amino-6-methoxypyridin-3-yl)-1-(3,5-dimethoxyphenyl)-3-methyl-1H-imidazo[4,5-c]quinolin-2(3H)-ylidene)cyanamide], the IC50 in assay [1] is ≤ 0.5 µM; in assay [2] it was 0.5 to 2 µM.
Take `COc1ccc(-c2ccc3ncc4c(c3c2)n(-c2ccc(OC)nc2)c(=NC#N)n4C)cn1` [Example 48, N-(1,8-bis(6-methoxypyridin-3-yl)-3-methyl-1H-imidazo[4,5-c]quinolin-2(3H)-ylidene)cyanamide]: the inhibition at 1 µM was ≥ 70% in assay [1] and 30 to 70% in assay [2].
As to `COc1ccc(-n2c(=NC#N)n(C)c3cnc4ccc(-c5ccc(N(C)C)nc5)cc4c32)cn1` [Example 2, N-(8-(6-(dimethylamino)pyridin-3-yl)-1-(6-methoxypyridin-3-yl)-3-methyl-1H-imidazo[4,5-c]quinolin-2(3H)-ylidene)cyanamide], the 50% inhibitory concentration (IC50) in assay [1] and in assay [2] was ≤ 0.5 µM throughout.
For the compound `Cn1c(=NC#N)n(-c2ccc(C(C)(C)C#N)cc2)c2c3cc(-c4ccc5cc[nH]c5c4)ccc3ncc21` [Example 94, N-(1-(4-(2-cyanopropan-2-yl)phenyl)-8-(1H-indol-6-yl)-3-methyl-1H-imidazo[4,5-c]quinolin-2(3H)-ylidene)cyanamide], the IC50 in assay [1] and in assay [2] was ≤ 0.5 µM throughout.
Consider `COc1ccc(-n2c(=NC#N)n(C)c3cnc4ccc(-c5cnc(N)c(C(F)(F)F)c5)cc4c32)cn1` [Example 1, N-(8-(6-amino-5-(trifluoromethyl)pyridin-3-yl)-1-(6-methoxypyridin-3-yl)-3-methyl-1H-imidazo[4,5-c]quinolin-2(3H)-ylidene)cyanamide], for which the IC50 in assay [1] and in assay [2] was ≤ 0.5 µM each time.
Consider `Cn1c(=NC#N)n(-c2ccc(C(C)(C)C#N)cc2)c2c3cc(C4=CCN(C(=O)OC(C)(C)C)CC4)ccc3ncc21` [Example 89, tert-butyl 4-(2-(cyanoimino)-1-(4-(2-cyanopropan-2-yl)phenyl)-3-methyl-2,3-dihydro-1H-imidazo[4,5-c]quinolin-8-yl)-5,6-dihydropyridine-1(2H)-carboxylate], for which the inhibition at 1 µM in assay [1] is 30 to 70%; in assay [2], < 30%.
With `CC(C)Oc1ccccc1-c1ccc2ncc3c(c2c1)n(-c1ccc(C(C)(C)C#N)nc1)c(=NC#N)n3C` [Example 65, N-(1-(6-(2-cyanopropan-2-yl)pyridin-3-yl)-8-(2-isopropoxyphenyl)-3-methyl-1H-imidazo[4,5-c]quinolin-2(3H)-ylidene)cyanamide], the inhibition at 1 µM in assay [1] and in assay [2] was < 30% throughout.
`CC(C)(C#N)c1ccc(-n2c(=NC#N)[nH]c3cnc4ccc(-c5cnc(N)c(C(F)(F)F)c5)cc4c32)cc1` [Example 83, N-(8-(6-amino-5-(trifluoromethyl)pyridin-3-yl)-1-(4-(2-cyanopropan-2-yl)phenyl)-1H-imidazo[4,5-c]quinolin-2(3H)-ylidene)cyanamide]: the inhibition at 1 µM in assay [1] is ≥ 70%; in assay [2], 30 to 70%.
Regarding `COc1ncc(-c2ccc3ncc4c(c3c2)n(-c2ccc(OC(F)(F)F)cc2)c(=NC#N)n4C)cc1N` [Example 106, N-(8-(5-amino-6-methoxypyridin-3-yl)-3-methyl-1-(4-(trifluoromethoxy)phenyl)-1H-imidazo[4,5-c]quinolin-2(3H)-ylidene)cyanamide], the half-inhibitory concentration (IC50) in assay [1] and in assay [2] was ≤ 0.5 µM in each case.
For `COc1ccc(-n2c(=NC#N)n(C)c3cnc4ccc(-c5ccccc5OC(C)C)cc4c32)cn1` [Example 27, N-(8-(2-isopropoxyphenyl)-1-(6-methoxypyridin-3-yl)-3-methyl-1H-imidazo[4,5-c]quinolin-2(3H)-ylidene)cyanamide], the inhibition at 1 µM in assay [1] and in assay [2] was < 30% in each case.

The values are drawn from patent publication US9062046B2, “Substituted imidazoquinoline derivatives as kinase inhibitors” (Piramal Enterprises Limited, priority 2011, dated 2015).
